According to PubChem BioAssay (NCI):
“And” between values parts separate entries of the source, which are not always exact repeats. Identical values can stand only once.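 Values below derive from 48-hour exposures of cells grown in 96-well plates, with endpoints linearly interpolated between the two concentrations bracketing the appropriate inhibition level. GI50: concentration for 50% inhibition of growth. TGI denotes the concentration required for complete inhibition of growth.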

Key:
Assay in all cases: DTP human tumour cell line panel, 48 h
[1] = tested on: CAKI-1 renal
[2] = tested on: SR leukemia
[3] = tested on: K-562 leukemia
[4] = tested on: SK-MEL-2 melanoma
[5] = tested on: NCI-H23 lung
[6] = tested on: M14 melanoma
[7] = tested on: NCI-H226 lung
[8] = tested on: HCC-2998 colon
[9] = tested on: SNB-75 CNS
[10] = tested on: MALME-3M melanoma

Compound | GI50 [1] [µM] | TGI [1] [µM] | GI50 [2] | TGI [2] [µM] | GI50 [3] | TGI [3] [µM] | GI50 [4] | TGI [4] | GI50 [5] | TGI [5] [µM] | GI50 [6] | TGI [6] | GI50 [7] | TGI [7] [µM] | GI50 [8] | TGI [8] [µM] | GI50 [9] | TGI [9] | GI50 [10] | TGI [10]
OCc1ccc(N2CCC2c2ccc(F)cc2)cc1Cl (stereo not given) | 12.9 | > 57.1 | 22.6 µM | 54.8 | 6.66 µM | 58.6 | 11.4 µM | 29.3 µM | 22.2 µM | > 80.1 | 32.7 µM | > 79.4 µM | 0.0912 µM | 0.322 | 17.5 µM | 46 | 20.6 µM | > 100 µM | 29.4 µM | > 66.1 µM
C=C1C(=O)C23CC1CCC2C12CO[C@@H]4OCC(C)(CC[C@@H]1OC3=O)C42 (stereo not given in full) | – | 5.33 | – | 26.4 | – | > 100 | – | 16.9 µM | – | 16.6 | – | 2.88 µM | – | 38.4 | – | 30.9 | – | 30.8 µM | – | 4.14 µM
COC1CCC(N2C(=O)CNc3ncc(-c4ccc(C(C)(C)O)nc4)nc32)CC1 (stereo not given) | 0.412 | > 6.75 | 1.06 µM and 0.331 µM | > 47.2 | 2.28 µM and 0.77 µM | > 100 | 0.772 µM and 0.183 µM | 3.69 µM and 1.48 µM | 1.16 µM and 0.35 µM | > 45.1 | 0.614 µM and 0.134 µM | > 6.95 µM and 11.8 µM | 0.305 µM and 0.226 µM | > 41.8 | 1.98 µM and 0.306 µM | > 39.2 | 0.281 µM and 0.0543 µM | 3.54 µM and 1.6 µM | 0.228 µM and 0.0287 µM | 2.8 µM and 0.352 µM
O=CN/C=C/c1cc(O)ccc1O | – | 25.8 | – | 48.2 | – | 52.9 | – | > 71.9 µM | – | 43.7 | – | 32.8 µM | – | > 88.1 | – | > 100 | – | 98.2 µM | – | 35.6 µM
O=C1CC(c2ccc3c(c2)OCO3)Nc2ccccc21 (stereo not given) | 5.31 | 47.5 | 4.56 µM | > 100 | 3.33 µM | > 100 | 12.7 µM | > 62.8 µM | 12.2 µM | 32.7 | 14 µM | 30.5 µM | 24.6 µM | > 88 | 15.8 µM | 30.4 | 4.04 µM | 18.5 µM | 14.5 µM | 30.2 µM
CC/C=C\CCC/C=C1/C(=O)C=C[C@@H]1C/C=C\CCCC(=O)OC | 4.12 | 13.5 | 2.73 µM | 9.22 | 2.46 µM | 11.6 | 2.6 µM | 7.21 µM | 3.23 µM | 10.8 | 3.17 µM | 10.1 µM | 3.25 µM | 9.64 | 2.3 µM | 4.02 | 13.7 µM | 28.5 µM | 4.76 µM | 16.6 µM
Cc1cc(I)cc(CN(C)CCCCN2CCCCC2)c1O | 13.6 | 29.5 | 4.6 µM | 17.9 | 4.03 µM | 17.1 | 13.8 µM | 29.2 µM | 24.7 µM | > 100 | 3.31 µM | 12.4 µM | 25.7 µM | > 100 | 16 µM | 30.1 | 15 µM | 32.8 µM | 12.7 µM | 28 µM
